The values that follow come from paper PMC12390925, “Metabolomics analysis of SNAT2-deficient cells: Implications for the discovery of selective small-molecule inhibitors of an amino acid transporter” (The Journal of Biological Chemistry, 2025).

For series [1], the target named is T1, sodium-coupled neutral amino acid transporter 2 (SNAT2/SLC38A2) (Homo sapiens, UniProt Q96QD8).
T1 construct: dox-inducible sgRNA-resistant human SLC38A2 cDNA in Slc38a2-KO mouse HY15549 cells
T1 sequence (Q96QD8 1-506): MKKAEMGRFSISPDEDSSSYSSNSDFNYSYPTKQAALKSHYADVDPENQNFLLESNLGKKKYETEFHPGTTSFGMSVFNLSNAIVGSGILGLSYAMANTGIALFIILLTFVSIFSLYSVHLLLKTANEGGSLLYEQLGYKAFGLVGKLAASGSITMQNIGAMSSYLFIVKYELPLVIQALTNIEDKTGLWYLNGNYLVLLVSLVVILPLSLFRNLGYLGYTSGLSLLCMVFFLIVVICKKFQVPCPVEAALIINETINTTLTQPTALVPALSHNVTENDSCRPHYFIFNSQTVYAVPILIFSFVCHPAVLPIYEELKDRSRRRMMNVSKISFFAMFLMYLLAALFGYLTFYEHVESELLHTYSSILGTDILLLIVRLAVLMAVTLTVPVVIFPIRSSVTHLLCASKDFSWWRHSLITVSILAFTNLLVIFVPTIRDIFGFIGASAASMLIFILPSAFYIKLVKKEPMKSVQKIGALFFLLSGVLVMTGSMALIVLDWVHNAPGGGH
Nature of the series: inhibition of SNAT2-dependent MeAIB uptake in cells (GC-MS). Type of series: cell-based.

Series [2] deals with T1, sodium-coupled neutral amino acid transporter 2 (SNAT2/SLC38A2). As to the kind of experiment: GC-MS cell uptake assay, SNAT2-expressing vs SNAT2-KO cells (KM). It is filed as cell-based.
Substrate in series [3]: CNC(C)(C)C(=O)O
As to the kind of experiment: GC-MS cell uptake assay, SNAT1-overexpressing vs empty vector cells (KM). It is filed as cell-based, Homo sapiens.

The term IC50 denotes the concentration that gives 50% inhibition. Low values mean higher potency, high ones lower potency. Take `C[C@H](N)C(=O)O` [L-alanine]: 1.9 mM corresponded to half-maximal inhibition in series [1] (IC50).
In general, Km refers to the substrate concentration at which the rate is half of its maximum. For the molecule `CNC(C)(C)C(=O)O` [MeAIB], in series [2], the Km is ~300 µM.

B1: SNAT1 (Homo sapiens) (protein)
chain: MMHFKSGLELTELQNMTVPEDDNISNDSNDFTEVENGQINSKFISDRESRRSLTNSHLEKKKCDEYIPGTTSLGMSVFNLSNAIMGSGILGLAFALANTGILLFLVLLTSVTLLSIYSINLLLICSKETGCMVYEKLGEQVFGTTGKFVIFGATSLQNTGAMLSYLFIVKNELPSAIKFLMGKEETFSAWYVDGRVLVVIVTFGIILPLCLLKNLGYLGYTSGFSLSCMVFFLIVVIYKKFQIPCIVPELNSTISANSTNADTCTPKYVTFNSKTVYALPTIAFAFVCHPSVLPIYSELKDRSQKKMQMVSNISFFAMFVMYFLTAIFGYLTFYDNVQSDLLHKYQSKDDILILTVRLAVIVAVILTVPVLFFTVRSSLFELAKKTKFNLCRHTVVTCILLVVINLLVIFIPSMKDIFGVVGVTSANMLIFILPSSLYLKITDQDGDKGTQRIWAALFLGLGVLFSLVSIPLVIYDWACSSSSDEGH
notes: CMV-driven human SLC38A1 cDNA stably expressed in HY15549 iSNAT2 cells
As for B1, in series [3], the Michaelis-Menten constant (Km) worked out at 2900 µM.
